The values that follow come from the NIST ThermoML archive (doi:10.1021/je0601208).

In general, surface tension liquid-gas refers to the work needed to enlarge the surface of a liquid by unit area. A word on the refractive index: it is the speed of light in vacuum divided by its phase velocity in the sample. Broadly, the mass density is the mass of a sample divided by its volume.

The structures appear in SMILES notation. Numbers after ± are expanded uncertainties.

A short description of data set [1]: xn = mol fraction of the nth substance listed. To be noted: x2 = 0.
A short description of data set [2]: refractive index (Na D-line) (dimensionless); xn = mol fraction of the nth substance listed. To be noted: 100.5 kPa, Liquid, Standard Abbe refractometry, x2 = 0.
A short description of data set [3]: refractive index (Na D-line) (dimensionless). To be noted: 101.33 kPa, Liquid, Standard Abbe refractometry.
For data set [4] the following is noted: for mass density: 101.33 kPa, Liquid.

Regarding `CCO` [ethanol] + CCOC(=O)c1ccccc1, the surface tension liquid-gas in data set [1] (288.15 K) stood at 23 ± 0.6 mN/m; in data set [1] (298.15 K), 22.3 ± 0.6 mN/m; in data set [1] (308.15 K) it was 21.5 ± 0.6 mN/m; in data set [1] (318.15 K), 20.6 ± 0.6 mN/m. Moreover, the refractive index was 1.36333 ± 0.00031 in data set [2] (288.15 K), 1.35941 ± 0.00031 in data set [2] (298.15 K), 1.35531 ± 0.00031 in data set [2] (308.15 K) and 1.35148 ± 0.00031 in data set [2] (318.15 K).

Take `CCCC(=O)OCCC(C)C` [3-methylbutyl butanoate]: the refractive index turned out to be 1.41259 ± 0.00034 in data set [3] (288.15 K), 1.40815 ± 0.00034 in data set [3] (298.15 K), 1.40374 ± 0.00034 in data set [3] (308.15 K) and 1.39927 ± 0.00034 in data set [3] (318.15 K). In addition, the surface tension liquid-gas in data set [4] (288.15 K) came out at 25.7 ± 0.6 mN/m; in data set [4] (298.15 K), 24.7 ± 0.6 mN/m; in data set [4] (308.15 K), 24 ± 0.6 mN/m; in data set [4] (318.15 K), 23.1 ± 0.6 mN/m. In addition, the mass density in data set [4] (298.15 K) came to 858.69 ± 0.44 kg/m3.

`CCO` [ethanol] + CCCCCC(=O)OCC: the surface tension liquid-gas in data set [1] (288.15 K) worked out at 23 ± 0.6 mN/m; in data set [1] (298.15 K) it was 22.3 ± 0.6 mN/m; in data set [1] (308.15 K), 21.5 ± 0.6 mN/m; in data set [1] (318.15 K), 20.6 ± 0.6 mN/m. The refractive index in data set [2] (288.15 K) was 1.36333 ± 0.00031; in data set [2] (298.15 K), 1.35941 ± 0.00031; in data set [2] (308.15 K) it was 1.35531 ± 0.00031; in data set [2] (318.15 K) it was 1.35148 ± 0.00031.

Take `CCO` [ethanol] + CCCCCCCC(=O)OCC: the surface tension liquid-gas in data set [1] (288.15 K) was 23 ± 0.6 mN/m; in data set [1] (298.15 K), 22.3 ± 0.6 mN/m; in data set [1] (308.15 K) it was 21.5 ± 0.6 mN/m; in data set [1] (318.15 K), 20.6 ± 0.6 mN/m. Besides, the refractive index in data set [2] (288.15 K) was 1.36333 ± 0.00031; in data set [2] (298.15 K), 1.35941 ± 0.00031; in data set [2] (308.15 K) it was 1.35531 ± 0.00031; in data set [2] (318.15 K), 1.35148 ± 0.00031.

As to `CCO` [ethanol] + CC(=O)OCCC(C)C, the surface tension liquid-gas in data set [1] (288.15 K) is on record as 23 ± 0.4 mN/m; in data set [1] (298.15 K) it was 22.3 ± 0.4 mN/m; in data set [1] (308.15 K) it was 21.5 ± 0.4 mN/m; in data set [1] (318.15 K), 20.6 ± 0.4 mN/m. The refractive index in data set [2] (288.15 K) amounted to 1.36333 ± 0.00031; in data set [2] (298.15 K), 1.35941 ± 0.00031; in data set [2] (308.15 K), 1.35531 ± 0.00031; in data set [2] (318.15 K) it was 1.35148 ± 0.00031.

Turning to `CC(=O)OCCC(C)C` [3-methylbutyl ethanoate], the refractive index in data set [3] (288.15 K) amounted to 1.40288 ± 0.00034; in data set [3] (298.15 K), 1.39836 ± 0.00034; in data set [3] (308.15 K), 1.39365 ± 0.00034; in data set [3] (318.15 K), 1.38895 ± 0.00034. The surface tension liquid-gas in data set [4] (288.15 K) was 25.4 ± 0.4 mN/m; in data set [4] (298.15 K), 24.3 ± 0.4 mN/m; in data set [4] (308.15 K) it was 23.4 ± 0.4 mN/m; in data set [4] (318.15 K) it was 22.4 ± 0.4 mN/m. In data set [4] (298.15 K), the mass density amounted to 867.91 ± 0.45 kg/m3.

For the compound `CCO` [ethanol], the refractive index amounted to 1.36333 ± 0.00031 in data set [3] (288.15 K), 1.35941 ± 0.00031 in data set [3] (298.15 K), 1.35531 ± 0.00031 in data set [3] (308.15 K) and 1.35148 ± 0.00031 in data set [3] (318.15 K). For the same compound, the surface tension liquid-gas came to 23 ± 0.4 mN/m in data set [4] (288.15 K), 22.3 ± 0.4 mN/m in data set [4] (298.15 K), 21.5 ± 0.4 mN/m in data set [4] (308.15 K) and 20.6 ± 0.4 mN/m in data set [4] (318.15 K). Moreover, the mass density in data set [4] (298.15 K) is on record as 785 ± 0.24 kg/m3.

Take `CCCCCCCC(=O)OCC` [ethyl octanoate]: the refractive index stood at 1.41991 ± 0.00033 in data set [3] (288.15 K), 1.4156 ± 0.00033 in data set [3] (298.15 K), 1.41137 ± 0.00033 in data set [3] (308.15 K) and 1.40702 ± 0.00033 in data set [3] (318.15 K). Further, the surface tension liquid-gas in data set [4] (288.15 K) turned out to be 27.2 ± 0.6 mN/m; in data set [4] (298.15 K) it was 26.4 ± 0.6 mN/m; in data set [4] (308.15 K), 25.5 ± 0.6 mN/m; in data set [4] (318.15 K), 24.7 ± 0.6 mN/m. For the same compound, in data set [4] (298.15 K), the mass density is reported as 862.15 ± 0.41 kg/m3.

In the case of `CCO` [ethanol] + CCCC(=O)OCCC(C)C, the surface tension liquid-gas in data set [1] (288.15 K) amounted to 23 ± 0.6 mN/m; in data set [1] (298.15 K), 22.3 ± 0.6 mN/m; in data set [1] (308.15 K), 21.5 ± 0.6 mN/m; in data set [1] (318.15 K) it was 20.6 ± 0.6 mN/m. For the same compound, the refractive index in data set [2] (288.15 K) is on record as 1.36333 ± 0.00031; in data set [2] (298.15 K) it was 1.35941 ± 0.00031; in data set [2] (308.15 K), 1.35531 ± 0.00031; in data set [2] (318.15 K), 1.35148 ± 0.00031.

For `CCOC(=O)c1ccccc1` [ethyl benzoate], the refractive index in data set [3] (288.15 K) stood at 1.5076 ± 0.00032; in data set [3] (298.15 K), 1.50328 ± 0.00032; in data set [3] (308.15 K), 1.49863 ± 0.00032; in data set [3] (318.15 K), 1.49391 ± 0.00032. The surface tension liquid-gas in data set [4] (288.15 K) is 35.7 ± 0.7 mN/m; in data set [4] (298.15 K), 34.6 ± 0.7 mN/m; in data set [4] (308.15 K) it was 33.3 ± 0.7 mN/m; in data set [4] (318.15 K), 32.5 ± 0.7 mN/m. Moreover, in data set [4] (298.15 K), the mass density is on record as 1041.42 ± 0.14 kg/m3.

`CCO` [ethanol] + CCOC(=O)Cc1ccccc1: the surface tension liquid-gas in data set [1] (288.15 K) is listed as 23 ± 0.6 mN/m; in data set [1] (298.15 K), 22.3 ± 0.6 mN/m; in data set [1] (308.15 K), 21.5 ± 0.6 mN/m; in data set [1] (318.15 K), 20.6 ± 0.6 mN/m. Moreover, the refractive index in data set [2] (288.15 K) turned out to be 1.36333 ± 0.00031; in data set [2] (298.15 K), 1.35941 ± 0.00031; in data set [2] (308.15 K) it was 1.35531 ± 0.00031; in data set [2] (318.15 K), 1.35148 ± 0.00031.

In the case of `CCOC(=O)Cc1ccccc1` [ethyl phenylacetate], the refractive index in data set [3] (288.15 K) was determined as 1.49971 ± 0.00034; in data set [3] (298.15 K), 1.49513 ± 0.00034; in data set [3] (308.15 K) it was 1.49063 ± 0.00034; in data set [3] (318.15 K), 1.48583 ± 0.00034. The surface tension liquid-gas in data set [4] (288.15 K) turned out to be 35.9 ± 0.7 mN/m; in data set [4] (298.15 K) it was 34.6 ± 0.7 mN/m; in data set [4] (308.15 K), 33.5 ± 0.7 mN/m; in data set [4] (318.15 K), 32.8 ± 0.7 mN/m. Moreover, the mass density in data set [4] (298.15 K) stood at 1026.96 ± 0.35 kg/m3.

With `CCCCCC(=O)OCC` [ethyl hexanoate], the refractive index is given as 1.4095 ± 0.00032 in data set [3] (288.15 K), 1.40504 ± 0.00032 in data set [3] (298.15 K), 1.40055 ± 0.00032 in data set [3] (308.15 K) and 1.39597 ± 0.00032 in data set [3] (318.15 K). The surface tension liquid-gas in data set [4] (288.15 K) was found to be 26.4 ± 0.6 mN/m; in data set [4] (298.15 K), 25.4 ± 0.6 mN/m; in data set [4] (308.15 K), 24.5 ± 0.6 mN/m; in data set [4] (318.15 K) it was 23.6 ± 0.6 mN/m. Moreover, the mass density in data set [4] (298.15 K) was found to be 866.29 ± 0.21 kg/m3.
